Results published in patent US20230330093A1, “APPLICATION OF NITROGEN-CONTAINING SATURATED HETEROCYCLIC COMPOUND” (SHANGHAI PHARMACEUTICALS HOLDING CO., LTD., priority 2020, published 2023).
Values joined by “and” are separate entries in the source; they are usually repeats but may differ in a detail not shown here. Identical values can stand only once.

System: rhesus monkeys with spontaneous chronic kidney disease
Experiment: Effect on glomerular filtration rate eGFRcreat-cys, 8-week administration
Format: in vivo, Macaca mulatta (Rhesus Macaque)
Protocol: CKD-EPI rating […]-G3b, glomerular filtration rate eGFR: 30 59 ml/min/1.73 m^2; or moderate to severe increase in proteinuria (A2-A3): urine albumin/creatinine ratio (UACR)>15 mg/g-350 mg/g (4-6 hour urine collection), vs. age-matched control group 3±2 mg/g. In the trial, animals were brought in three stages. […] Glomerular filtration rate […]: creatinine (Cr-P), urea nitrogen (BUN) and cystatin (CysC) were detected, and the eGFR value was obtained by calculation. It was performed once before the administration and once every two weeks after the administration. […] ELISA kit was used for NT-proBNP test. [table] Selected […] in each group: 30 59 ml/min/1.73 m^2. The changes in the glomerular filtration rate of W8 and baseline were analyzed.

With COC(=O)NCCCn1nc([C@@H](C)N(C(=O)[C@H]2CNCCO2)C2CC2)c2ccc(C)nc21.O=C(O)C[C@H](O)C(=O)O [malate of compound of Formula I] the eGFRcreat-cys (1 mg/kg qd (n = 5), 2 weeks) was 53 ml/min/1.73 m^2 and 56 ml/min/1.73 m^2 and 50 ml/min/1.73 m^2 and 48 ml/min/1.73 m^2, the eGFRcreat-cys (1 mg/kg qd (n = 5), 2 weeks, group mean) was 52 ± 3 ml/min/1.73 m^2 and the eGFRcreat-cys (1 mg/kg qd (n = 5), 4 weeks) was 60 ml/min/1.73 m^2 and 64 ml/min/1.73 m^2 and 55 ml/min/1.73 m^2 and 52 ml/min/1.73 m^2 and 56 ml/min/1.73 m^2. For the same compound, the eGFRcreat-cys (1 mg/kg qd (n = 5), 4 weeks, group mean) was 57 ± 5 ml/min/1.73 m^2, the eGFRcreat-cys (1 mg/kg qd (n = 5), 6 weeks) was 58 ml/min/1.73 m^2 and 57 ml/min/1.73 m^2 and 56 ml/min/1.73 m^2 and 53 ml/min/1.73 m^2 and the eGFRcreat-cys (1 mg/kg qd (n = 5), 6 weeks, group mean) was 56 ± 2 ml/min/1.73 m^2. For the same compound, the eGFRcreat-cys (1 mg/kg qd (n = 5), 8 weeks) was 58 ml/min/1.73 m^2 and 59 ml/min/1.73 m^2 and 53 ml/min/1.73 m^2 and 48 ml/min/1.73 m^2 and 57 ml/min/1.73 m^2, the eGFRcreat-cys (1 mg/kg qd (n = 5), 8 weeks, group mean) was 55 ± 5 ml/min/1.73 m^2 and the eGFRcreat-cys (1 mg/kg qd (n = 5), Baseline, single animals and Mean ± SD) was 51 ml/min/1.73 m^2 and 54 ml/min/1.73 m^2 and 53 ml/min/1.73 m^2 and 50 ml/min/1.73 m^2 and 52 ml/min/1.73 m^2. For the same compound, the eGFRcreat-cys (1 mg/kg qd (n = 5), Baseline, single animals and Mean ± SD, group mean) was 52 ± 1 ml/min/1.73 m^2, the “eGFRcreat-cy, Change value” (2 mg/kg oral once a day, 2 weeks vs baseline, per animal + Mean ± SD) was 5 ml/min/1.73 m^2 and −3 ml/min/1.73 m^2 (3×) and 0 ml/min/1.73 m^2 and the “eGFRcreat-cy, Change value” (2 mg/kg oral once a day, 2 weeks vs baseline, per animal + Mean ± SD, mean) was −1 ± 3 ml/min/1.73 m^2. For the same compound, the “eGFRcreat-cy, Change value” (2 mg/kg oral once a day, 4 weeks vs baseline, per animal + Mean ± SD) was 7 ml/min/1.73 m^2 and −5 ml/min/1.73 m^2 and 1 ml/min/1.73 m^2 (2×) and 10 ml/min/1.73 m^2, the “eGFRcreat-cy, Change value” (2 mg/kg oral once a day, 4 weeks vs baseline, per animal + Mean ± SD, mean) was 3 ± 6 ml/min/1.73 m^2 and the “eGFRcreat-cy, Change value” (2 mg/kg oral once a day, 6 weeks vs baseline, per animal + Mean ± SD) was 4 ml/min/1.73 m^2 and −1 ml/min/1.73 m^2 and 0 ml/min/1.73 m^2 and 5 ml/min/1.73 m^2 (2×). The “eGFRcreat-cy, Change value” (2 mg/kg oral once a day, 6 weeks vs baseline, per animal + Mean ± SD, mean) was 3 ± 3 ml/min/1.73 m^2, the “eGFRcreat-cy, Change value” (2 mg/kg oral once a day, 8 weeks vs baseline, per animal + Mean ± SD (p<0.05 vs placebo)) was 3±3 ml/min/1.73 m^2 and 5 ml/min/1.73 m^2 and 0 ml/min/1.73 m^2 and 2 ml/min/1.73 m^2 and 6 ml/min/1.73 m^2 and 1 ml/min/1.73 m^2 and the “eGFRcreat-cy, Change value” (2 mg/kg oral once a day, Baseline, per animal + Mean ± SD) was 0 ml/min/1.73 m^2. For the same compound, the “eGFRcreat-cy, Change value” (2 mg/kg oral once a day, Baseline, per animal + Mean ± SD, mean) was 0 ± 0 ml/min/1.73 m^2, the eGFRcreat-cys (2 mg/kg qd (n = 5), 2 weeks) was 58 ml/min/1.73 m^2 and 47 ml/min/1.73 m^2 and 46 ml/min/1.73 m^2 and 43 ml/min/1.73 m^2 and 57 ml/min/1.73 m^2 and the eGFRcreat-cys (2 mg/kg qd (n = 5), 2 weeks, group mean) was 50 ± 7 ml/min/1.73 m^2. For the same compound, the eGFRcreat-cys (2 mg/kg qd (n = 5), 4 weeks) was 61 ml/min/1.73 m^2 and 45 ml/min/1.73 m^2 and 50 ml/min/1.73 m^2 and 56 ml/min/1.73 m^2 and 59 ml/min/1.73 m^2, the eGFRcreat-cys (2 mg/kg qd (n = 5), 4 weeks, group mean) was 54 ± 7 ml/min/1.73 m^2 and the eGFRcreat-cys (2 mg/kg qd (n = 5), 6 weeks) was 58 ml/min/1.73 m^2 and 48 ml/min/1.73 m^2 and 51 ml/min/1.73 m^2 and 62 ml/min/1.73 m^2. The eGFRcreat-cys (2 mg/kg qd (n = 5), 6 weeks, group mean) was 54 ± 6 ml/min/1.73 m^2, the eGFRcreat-cys (2 mg/kg qd (n = 5), Baseline, single animals and Mean ± SD) was 54 ml/min/1.73 m^2 and 50 ml/min/1.73 m^2 and 48 ml/min/1.73 m^2 and 46 ml/min/1.73 m^2 and 58 ml/min/1.73 m^2 and the eGFRcreat-cys (2 mg/kg qd (n = 5), Baseline, single animals and Mean ± SD, group mean) was 51 ± 5 ml/min/1.73 m^2. The “eGFRcreat-cy, Change value” (5 mg/kg oral once a day, 2 weeks vs baseline, per animal + Mean ± SD) was 4 ml/min/1.73 m^2 and 9 ml/min/1.73 m^2 and 11 ml/min/1.73 m^2 and −4 ml/min/1.73 m^2 and 1 ml/min/1.73 m^2 and 17 ml/min/1.73 m^2, the “eGFRcreat-cy, Change value” (5 mg/kg oral once a day, 2 weeks vs baseline, per animal + Mean ± SD, mean) was 5 ± 9 ml/min/1.73 m^2 and the “eGFRcreat-cy, Change value” (5 mg/kg oral once a day, 4 weeks vs baseline, per animal + Mean ± SD) was −3 ml/min/1.73 m^2 and 4 ml/min/1.73 m^2 and 6 ml/min/1.73 m^2 and 2 ml/min/1.73 m^2 and 12 ml/min/1.73 m^2 and 11 ml/min/1.73 m^2. For the same compound, the “eGFRcreat-cy, Change value” (5 mg/kg oral once a day, 4 weeks vs baseline, per animal + Mean ± SD, mean) was 5 ± 6 ml/min/1.73 m^2, the “eGFRcreat-cy, Change value” (5 mg/kg oral once a day, 6 weeks vs baseline, per animal + Mean ± SD) was −1 ml/min/1.73 m^2 (2×) and 6 ml/min/1.73 m^2 and −2 ml/min/1.73 m^2 and 11 ml/min/1.73 m^2 (2×) and the “eGFRcreat-cy, Change value” (5 mg/kg oral once a day, 6 weeks vs baseline, per animal + Mean ± SD, mean) was 4 ± 6 ml/min/1.73 m^2. The “eGFRcreat-cy, Change value” (5 mg/kg oral once a day, 8 weeks vs baseline, per animal + Mean ± SD (p<0.05 vs placebo)) was 6±6 ml/min/1.73 m^2 and 3 ml/min/1.73 m^2 and 6 ml/min/1.73 m^2 and 4 ml/min/1.73 m^2 and 2 ml/min/1.73 m^2 and 8 ml/min/1.73 m^2 and 17 ml/min/1.73 m^2, the “eGFRcreat-cy, Change value” (5 mg/kg oral once a day, Baseline, per animal + Mean ± SD) was 0 ml/min/1.73 m^2 and the “eGFRcreat-cy, Change value” (5 mg/kg oral once a day, Baseline, per animal + Mean ± SD, mean) was 0 ± 0 ml/min/1.73 m^2. The eGFRcreat-cys (5 mg/kg qd (n = 6), 2 weeks) was 51 ml/min/1.73 m^2 and 57 ml/min/1.73 m^2 and 62 ml/min/1.73 m^2 and 37 ml/min/1.73 m^2 and 54 ml/min/1.73 m^2 and 61 ml/min/1.73 m^2.
